The series concerns Rosacea patients. Description: Clinical study with rosacea patients. Conditions: human, in vivo.

This passage reports immunotoxic effects results from US9629856B2, “Compositions and methods for the treatment of skin diseases and disorders using antimicrobial peptide sequestering compounds” (Anteis SA, priority 2010, dated 2017).

Experimental: The following assessments or evaluations were performed before the treatment (Visit 1) and during the treatment period after about 2 weeks (Visit 2), about 4 weeks (Visit 3) and about 8 weeks (Visit 4): Tolerability including burning/stinging/tingling, pruritis, dryness, scaling/peeling and atrophy were evaluated of the face by the investigator (i.e., dermatologist) according to the following scale: 0=none, 1=mild, 2=moderate, 3=severe. Furthermore, any adverse events experienced by subject during the study period, whether related to the treatment or not, were recorded. Assessment of overall skin conditions of the face was performed by the investigator (i.e., dermatologist) according to the following scoring system: [table] Count of total number of inflammatory lesions (papules and pustules) on the face by the investigator (i.e., dermatologist). Evaluation of the severity of both redness/erythema and telangiectasia on the face by the investigator (i.e., dermatologist) according to the following scale: [table] […] Clinical photographs were taken at all visits utilizing standardized conditions for all subjects. […] In case possible, cross-polarized, parallel-polarized and visible light images were acquired along with both blue fluorescence and ultraviolet fluorescence images.

Consider “Hydroxypropyl Starch Phosphate [Structure XL]”, for which the immunotoxic effects entry is “no evidence of immunotoxic effects”.
